Like-named read-outs stand apart in the source and are kept apart here.
What was measured:
[1] = cited from earlier work
[2] = Bioavailability in rats after per-oral administration; settings: rat, in vivo, read-out: Relative bioavailability
[3] = Dissolution study, USP dissolution apparatus II; format: physicochemical; settings: 500 ml 0.2% polysorbate 20 in 0.05 M phosphate buffer pH 6.5, paddle 75 rpm; 8 mg c.c. added except tablets as footnoted
Procedure: The medium used for dissolution studies was 500 ml of 0.2% polysorbate 20 in 0.05 M phosphate buffer pH 6.5 with a paddle speed of 75 rpm (USP dissolution apparatus II). In all dissolution tests, 8 mg of candesartan cilexetil was added to the medium (except where other is stated). After extraction with 60% (v/v) acetonitrile in water (filter pore size 0.45 μm), the amount of candesartan cilexetil was determined by liquid chromatography and UV-detection at 254 nm.

## CCOc1nc2cccc(C(=O)OC(C)OC(=O)OC3CCCCC3)c2n1Cc1ccc(-c2ccccc2-c2nnn[nH]2)cc1 (stereo not shown) [c.c., candesartan cilexetil]
[1]
  Solubility in water: < 0.05 µg/mL
[2]; given as a suspension
  bioavailability: 19%
[2]; given in solution
  bioavailability: 50%
[3]
  Drug dissolved after 5 minutes: 24
  Drug dissolved after 10 minutes: 43
  Drug dissolved after 15 minutes: 54
  Drug dissolved after 20 minutes: 61
